Consider seven compounds from US4605641A, “Synthetic vasoactive intestinal peptide analogs” (Hoffmann-La Roche Inc., priority 1984, dated 1986).

Peptide text beside a SMILES is read from it.

The experiment concerns guinea pig trachea smooth muscle. The experiment is described as follows: Bronchodilator (relaxant) effect on isolated guinea pig tracheal rings. The note with it: for Relative Potency: guinea pig trachea, relative to VIP = 100%; for EC50: guinea pig tracheal rings, relaxation as % of maximum response to VIP 10^-6 M, three tissues pooled, linear regression, read-out: EC50 (M), agonist activity, bronchodilator effect. The class given is cell-based. An excerpt:
The bronchodilatory effect of VIP analogs was studied in a model utilizing guinea pig trachea. Wasserman, M. A. et al. "Comparative In Vitro Tracheal Relaxant Effects of Porcine and Hen VIP" in Vasoactive Intestinal Peptide ed. Said, S.I., Raven Press (New York, 1982).
All tissues were taken from male albino guinea pigs weighing 400-600 g, anesthetized with urethane 2 g/kg i.p. After exsanguination the trachea was removed and divided into four ring segments (3 mm length). Each ring was suspended by two 30 guage stainless steel wires in a 10 ml jacket tissue bath and attached via 4-0 silk thread to a Grass force displacement transducer (model FT03C, Grass Instrument Co., Quincy, MA), for isometric recording of tension. The smooth muscle was bathed in modified Krebs solution of the following composition: NaCl, 120 mM; KCl, 4.7 mM; CaCl2, 2.5 mM; MgSO4.7H2 O; 1.2 mM; NaHCO3, 25 mM; KH2 PO4 monobasic, 1.2 mM; and dextrose, 10 mM. Tissue baths were maintained at 37.5° C. and constantly bubbled with 95% O2 and 5% CO2. Responses were recorded on an 8 channel and 4 channel Hewlett-Packard (model 7702B and 7754A, respectively) recorder (Hewlett Packard, Paramus, NJ). Tracheal rings were placed under a resting tension of 1.5 g which was determined to be at or near optimal in preliminary experiments. Frequent readjustments of tension were required during the 60 min. stabilization period which followed. Tissues were rinsed at 15 min. intervals.
Cumulative concentration response curves were obtained for each tissue by successive […] in the bath concentration of VIP or potential VIP agonists according to the method of VanRossum J. M., Arch. Int Pharmacodyn, 143, 299-330 (1963). Only one cummulative dose response curve was obtained on a single piece of tissue. To minimize variability between tissues, relaxant responses are expressed as a percentage of the maximum response obtainable to VIP (10^-6 M=100%) added at the end of the concentration response curve. Responses obtained from three tissues were pooled and EC50 values were determined by linear regression.

Take `CCCC[C@H](NC(=O)[C@H](CCC(N)=O)NC(=O)[C@H](CCCCN)NC(=O)[C@H](CCCCN)NC(=O)[C@H](CC(C)C)NC(=O)[C@H](CCCCN)NC(=O)[C@@H](NC(=O)[C@H](Cc1ccc(O)cc1)NC(=O)[C@H](CC(N)=O)NC(=O)[C@H](CC(=O)O)NC(=O)[C@@H](NC(=O)[C@H](Cc1ccccc1)NC(=O)[C@@H](NC(=O)[C@H](C)NC(=O)[C@H](CC(=O)O)NC(=O)[C@H](CO)NC(=O)[C@@H](N)Cc1c[nH]cn1)C(C)C)[C@@H](C)O)[C@@H](C)O)C(=O)N[C@@H](C)C(=O)N[C@H](C(=O)N[C@@H](CCCCN)C(=O)N[C@@H](CCCCN)C(=O)N[C@@H](Cc1ccc(O)cc1)C(=O)N[C@@H](CC(C)C)C(=O)N[C@@H](CC(N)=O)C(=O)N[C@@H](CO)C(=O)N[C@H](C(=O)N[C@@H](CC(C)C)C(=O)N[C@H](C(N)=O)[C@@H](C)O)C(C)C)C(C)C` [(Lys^12, Lys^14, Nle^17, Val^26, Thn^28, (Lys^12, Lys^14, Nle^17, Val^26, Thr^28)VIP] (HELM PEPTIDE1{H.S.D.A.V.F.T.D.N.Y.T.K.L.K.K.Q.[Nle].A.V.K.K.Y.L.N.S.V.L.T.[am]}$$$$V2.0): the “Relative Potency” value was 143% and the EC50 worked out at 7e-09 M.
Consider `CCCC[C@H](NC(=O)[C@H](CCC(N)=O)NC(=O)[C@H](CCCCN)NC(=O)[C@H](CCCNC(=N)N)NC(=O)[C@H](Cc1ccccc1)NC(=O)[C@H](CCCNC(=N)N)NC(=O)[C@H](CO)NC(=O)[C@H](Cc1ccc(O)cc1)NC(=O)[C@H](CC(N)=O)NC(=O)[C@H](CC(=O)O)NC(=O)[C@@H](NC(=O)[C@H](Cc1ccccc1)NC(=O)[C@@H](NC(=O)[C@H](C)NC(=O)[C@H](CC(=O)O)NC(=O)[C@H](CO)NC(=O)[C@H](Cc1c[nH]cn1)NC(C)=O)C(C)C)[C@@H](C)O)C(=O)N[C@@H](C)C(=O)N[C@H](C(=O)N[C@@H](CCCCN)C(=O)N[C@@H](CCCCN)C(=O)N[C@@H](Cc1ccc(O)cc1)C(=O)N[C@@H](CC(C)C)C(=O)N[C@@H](CC(N)=O)C(=O)N[C@@H](CO)C(=O)N[C@H](C(=O)N[C@@H](CC(C)C)C(=O)N[C@@H](CC(N)=O)C(N)=O)[C@@H](C)CC)C(C)C` [Ac--(Ser^11, Phe^13, Nle^17)--VIP, Ac-(Ser^11, Phe^13, Nle^17)VIP] (HELM PEPTIDE1{[ac].H.S.D.A.V.F.T.D.N.Y.S.R.F.R.K.Q.[Nle].A.V.K.K.Y.L.N.S.I.L.N.[am]}$$$$V2.0), for which the “Relative Potency” value worked out at 45% and the EC50 was determined as 2.2e-08 M.
Consider `CCCC[C@H](NC(=O)[C@H](CCC(N)=O)NC(=O)[C@H](CCCCN)NC(=O)[C@H](CCCNC(=N)N)NC(=O)[C@H](CC(C)C)NC(=O)[C@H](CCCNC(=N)N)NC(=O)[C@@H](NC(=O)[C@H](Cc1ccc(O)cc1)NC(=O)[C@H](CC(N)=O)NC(=O)[C@H](CC(=O)O)NC(=O)[C@@H](NC(=O)[C@H](Cc1ccccc1)NC(=O)[C@@H](NC(=O)[C@H](C)NC(=O)[C@H](CC(=O)O)NC(=O)[C@H](CO)NC(=O)[C@@H](N)Cc1c[nH]cn1)C(C)C)[C@@H](C)O)[C@@H](C)O)C(=O)N[C@@H](C)C(=O)N[C@H](C(=O)N[C@@H](CCCCN)C(=O)N[C@@H](CCCCN)C(=O)N[C@@H](Cc1ccc(O)cc1)C(=O)N[C@@H](CC(C)C)C(=O)N[C@@H](CC(N)=O)C(=O)N[C@@H](CO)C(=O)N[C@H](C(=O)N[C@@H](CC(C)C)C(=O)N[C@H](C(N)=O)[C@@H](C)O)[C@@H](C)CC)C(C)C` [(Nle^17, Thr^28)--VIP, (Nle^17, Thr^28)VIP] (HELM PEPTIDE1{H.S.D.A.V.F.T.D.N.Y.T.R.L.R.K.Q.[Nle].A.V.K.K.Y.L.N.S.I.L.T.[am]}$$$$V2.0), for which the “Relative Potency” value came out at 108% and the EC50 was determined as 9.3e-09 M.
`CCCC[C@H](NC(=O)[C@H](CCC(N)=O)NC(=O)[C@H](CCCCN)NC(=O)[C@H](CCCNC(=N)N)NC(=O)[C@H](CC(C)C)NC(=O)[C@H](CCCCN)NC(=O)[C@@H](NC(=O)[C@H](Cc1ccc(O)cc1)NC(=O)[C@H](CC(N)=O)NC(=O)[C@H](CC(=O)O)NC(=O)[C@@H](NC(=O)[C@H](Cc1ccccc1)NC(=O)[C@@H](NC(=O)[C@H](C)NC(=O)[C@H](CC(=O)O)NC(=O)[C@H](CO)NC(=O)[C@@H](N)Cc1c[nH]cn1)C(C)C)[C@@H](C)O)[C@@H](C)O)C(=O)N[C@@H](C)C(=O)N[C@H](C(=O)N[C@@H](CCCCN)C(=O)N[C@@H](CCCCN)C(=O)N[C@@H](Cc1ccc(O)cc1)C(=O)N[C@@H](CC(C)C)C(=O)N[C@@H](CC(N)=O)C(=O)N[C@@H](CO)C(=O)N[C@H](C(=O)N[C@@H](CC(C)C)C(=O)N[C@H](C(N)=O)[C@@H](C)O)C(C)C)C(C)C` [(Lys^12, Nle^17, Val^26, Thr^28)--VIP, (Lys^12, Nle^17, Val^26, Thr^28)VIP] (HELM PEPTIDE1{H.S.D.A.V.F.T.D.N.Y.T.K.L.R.K.Q.[Nle].A.V.K.K.Y.L.N.S.V.L.T.[am]}$$$$V2.0): the “Relative Potency” value was determined as 286% and the EC50 worked out at 3.5e-09 M.
For the compound `CCCC[C@H](NC(=O)[C@H](CCC(N)=O)NC(=O)[C@H](CCCCN)NC(=O)[C@H](CCCNC(=N)N)NC(=O)[C@H](CC(C)C)NC(=O)[C@H](CCCNC(=N)N)NC(=O)[C@@H](NC(=O)[C@H](Cc1ccc(O)cc1)NC(=O)[C@H](C)NC(=O)[C@H](CC(=O)O)NC(=O)[C@@H](NC(=O)[C@H](Cc1ccccc1)NC(=O)[C@@H](NC(=O)[C@H](C)NC(=O)[C@H](CC(=O)O)NC(=O)[C@H](CO)NC(=O)[C@@H](N)Cc1c[nH]cn1)C(C)C)[C@@H](C)O)[C@@H](C)O)C(=O)N[C@@H](C)C(=O)N[C@H](C(=O)N[C@@H](CCCCN)C(=O)N[C@@H](CCCCN)C(=O)N[C@@H](Cc1ccc(O)cc1)C(=O)N[C@@H](CC(C)C)C(=O)N[C@@H](CC(N)=O)C(=O)N[C@@H](CO)C(=O)N[C@H](C(=O)N[C@@H](CC(C)C)C(=O)N[C@@H](CC(N)=O)C(N)=O)[C@@H](C)CC)C(C)C` [(Ala^9, Nle^17)--VIP, (Ala^9, Nle^17)VIP] (HELM PEPTIDE1{H.S.D.A.V.F.T.D.A.Y.T.R.L.R.K.Q.[Nle].A.V.K.K.Y.L.N.S.I.L.N.[am]}$$$$V2.0), the “Relative Potency” value is given as 100% and the EC50 turned out to be 1e-08 M.
Take `CCCC[C@H](NC(=O)[C@H](CCC(N)=O)NC(=O)[C@H](CCCCN)NC(=O)[C@H](CCCNC(=N)N)NC(=O)[C@H](CC(C)C)NC(=O)[C@H](CCCNC(=N)N)NC(=O)[C@@H](NC(=O)[C@H](Cc1ccc(O)cc1)NC(=O)[C@H](CC(N)=O)NC(=O)[C@H](CC(=O)O)NC(=O)[C@@H](NC(=O)[C@H](Cc1ccccc1)NC(=O)[C@@H](NC(=O)[C@H](C)NC(=O)[C@H](CC(=O)O)NC(=O)[C@H](CO)NC(=O)[C@@H](N)Cc1c[nH]cn1)C(C)C)[C@@H](C)O)[C@@H](C)O)C(=O)N[C@@H](C)C(=O)N[C@H](C(=O)N[C@@H](CCCCN)C(=O)N[C@@H](CCCCN)C(=O)N[C@@H](Cc1ccc(O)cc1)C(=O)N[C@@H](CC(C)C)C(=O)N[C@@H](CC(N)=O)C(=O)N[C@H](C(=O)N[C@H](C(=O)N[C@@H](CC(C)C)C(=O)N[C@@H](CC(N)=O)C(N)=O)[C@@H](C)CC)[C@@H](C)O)C(C)C` [(Nle^17, Thr^25)--VIP, (Nle^17, Thr^25)VIP] (HELM PEPTIDE1{H.S.D.A.V.F.T.D.N.Y.T.R.L.R.K.Q.[Nle].A.V.K.K.Y.L.N.T.I.L.N.[am]}$$$$V2.0): the “Relative Potency” value is listed as 101% and the EC50 was 9.9e-09 M.
On the same counts, the results for `CCCC[C@H](NC(=O)[C@H](CCC(N)=O)NC(=O)[C@H](CCCCN)NC(=O)[C@H](CCCNC(=N)N)NC(=O)[C@H](CC(C)C)NC(=O)[C@H](CCCNC(=N)N)NC(=O)[C@@H](NC(=O)[C@H](Cc1ccc(O)cc1)NC(=O)[C@H](CC(N)=O)NC(=O)[C@H](CC(=O)O)NC(=O)[C@@H](NC(=O)[C@H](Cc1ccccc1)NC(=O)[C@@H](NC(=O)[C@H](C)NC(=O)[C@H](CC(=O)O)NC(=O)[C@H](CO)NC(=O)[C@@H](N)Cc1c[nH]cn1)C(C)C)[C@@H](C)O)[C@@H](C)O)C(=O)N[C@@H](C)C(=O)N[C@H](C(=O)N[C@@H](CCCCN)C(=O)N[C@@H](CCCCN)C(=O)N[C@@H](Cc1ccc(O)cc1)C(=O)N[C@@H](CC(C)C)C(=O)N[C@@H](CC(N)=O)C(=O)N[C@@H](CO)C(=O)N[C@H](C(=O)N[C@@H](CC(C)C)C(=O)N[C@H](C(N)=O)[C@@H](C)O)C(C)C)C(C)C` [(Nle^17, Val^26, Thr^28)--VIP, (Nle^17, Val^26, Thr^28)VIP] (HELM PEPTIDE1{H.S.D.A.V.F.T.D.N.Y.T.R.L.R.K.Q.[Nle].A.V.K.K.Y.L.N.S.V.L.T.[am]}$$$$V2.0) are 208% and 4.8e-09 M.

In general, EC50 refers to the concentration giving half of the maximal effect.
